{
  "source": "patent US11083725B2",
  "about": "(priority 2014, dated 2021)",
  "test_system": "NHBE cells",
  "assay": "Biolog metabolic array: substrate use by NHBE cells with or without CA09 infection",
  "format": "cell-based, human",
  "conditions": "for Substrate use, 590 nm absorbance normalized to zero hour, 1 hr: Biolog PMM2, 1 hr; for Substrate use, 590 nm absorbance normalized to zero hour, 5 hr: Biolog PMM2, 5 hr; for Substrate use, 590 nm absorbance normalized to zero hour, 7 hr: Biolog PMM2, 7 hr",
  "key": {"[1]": {"conditions": "Control (uninfected) NHBE cells"}, "[2]": {"conditions": "Virus (CA09, MOI 1) infected NHBE cells"}, "[3]": {"conditions": "Virus (CA09-infected, MOI 1) NHBE cells"}, "[4]": {"conditions": "Virus: CA09-infected NHBE cells, MOI 1, Biolog PMM2"}},
  "data": [
    {"smiles": "OC[C@@H](O)[C@H](O)[C@@H](O)CO", "note": "[Xylitol]", "values": [
      {"measurement": "590 nm absorbance normalized to zero hour (substrate use), 1 hr", "setting": "[1]", "value": 1.02},
      {"measurement": "590 nm absorbance normalized to zero hour (substrate use), 2 hr", "setting": "[1]", "value": 1.53},
      {"measurement": "590 nm absorbance normalized to zero hour (substrate use), 3 hr", "setting": "[1]", "value": 1.57},
      {"measurement": "590 nm absorbance normalized to zero hour (substrate use), 4 hr", "setting": "[1]", "value": 1.01},
      {"measurement": "590 nm absorbance normalized to zero hour (substrate use), 6 hr", "setting": "[1]", "value": 0.40},
      {"measurement": "590 nm absorbance normalized to zero hour (substrate use), 8 hr", "setting": "[1]", "value": 1.49},
      {"measurement": "590 nm absorbance normalized to zero hour (substrate use), 9 hr", "setting": "[1]", "value": 1.02},
      {"measurement": "590 nm absorbance normalized to zero hour (substrate use), 10 hr", "setting": "[1]", "value": 0.97},
      {"measurement": "590 nm absorbance normalized to zero hour (substrate use), 11 hr", "setting": "[1]", "value": 0.97},
      {"measurement": "Substrate use, 590 nm absorbance normalized to zero hour, 1 hr", "setting": "[1]", "value": 1.02},
      {"measurement": "Substrate use, 590 nm absorbance normalized to zero hour, 5 hr", "setting": "[1]", "value": 1.51},
      {"measurement": "Substrate use, 590 nm absorbance normalized to zero hour, 7 hr", "setting": "[1]", "value": 1.01},
      {"measurement": "Substrate use, 590 nm absorbance normalized to zero hour, 1 hr", "setting": "[2]", "value": 1.69},
      {"measurement": "Substrate use, 590 nm absorbance normalized to zero hour, 5 hr", "setting": "[2]", "value": 3.95},
      {"measurement": "Substrate use, 590 nm absorbance normalized to zero hour, 7 hr", "setting": "[2]", "value": 4.50},
      {"measurement": "590 nm absorbance normalized to zero hour (substrate use), 1 hr", "setting": "[3]", "value": 1.69},
      {"measurement": "590 nm absorbance normalized to zero hour (substrate use), 2 hr", "setting": "[3]", "value": 2.39},
      {"measurement": "590 nm absorbance normalized to zero hour (substrate use), 3 hr", "setting": "[3]", "value": 3.14},
      {"measurement": "590 nm absorbance normalized to zero hour (substrate use), 4 hr", "setting": "[3]", "value": 3.34},
      {"measurement": "590 nm absorbance normalized to zero hour (substrate use), 6 hr", "setting": "[3]", "value": 4.25},
      {"measurement": "590 nm absorbance normalized to zero hour (substrate use), 8 hr", "setting": "[3]", "value": 4.55},
      {"measurement": "590 nm absorbance normalized to zero hour (substrate use), 9 hr", "setting": "[3]", "value": 5.13},
      {"measurement": "590 nm absorbance normalized to zero hour (substrate use), 10 hr", "setting": "[3]", "value": 4.85},
      {"measurement": "590 nm absorbance normalized to zero hour (substrate use), 11 hr", "setting": "[3]", "value": 5.48}
    ]},
    {"smiles": "CC(=O)N[C@H]1C(O)O[C@H](CO)[C@@H](O)[C@@H]1O", "note": "(stereo partly drawn) [N-Acetyl-D-Glucosamine]", "values": [
      {"measurement": "590 nm absorbance normalized to zero hour (substrate use), 1 hr", "setting": "[1]", "value": 0.19},
      {"measurement": "590 nm absorbance normalized to zero hour (substrate use), 2 hr", "setting": "[1]", "value": 0.27},
      {"measurement": "590 nm absorbance normalized to zero hour (substrate use), 3 hr", "setting": "[1]", "value": 0.32},
      {"measurement": "590 nm absorbance normalized to zero hour (substrate use), 4 hr", "setting": "[1]", "value": 0.34},
      {"measurement": "590 nm absorbance normalized to zero hour (substrate use), 6 hr", "setting": "[1]", "value": 0.32},
      {"measurement": "590 nm absorbance normalized to zero hour (substrate use), 8 hr", "setting": "[1]", "value": 0.48},
      {"measurement": "590 nm absorbance normalized to zero hour (substrate use), 9 hr", "setting": "[1]", "value": 0.50},
      {"measurement": "590 nm absorbance normalized to zero hour (substrate use), 10 hr", "setting": "[1]", "value": 0.45},
      {"measurement": "590 nm absorbance normalized to zero hour (substrate use), 11 hr", "setting": "[1]", "value": 0.44},
      {"measurement": "Substrate use, 590 nm absorbance normalized to zero hour, 1 hr", "setting": "[1]", "value": 0.19},
      {"measurement": "Substrate use, 590 nm absorbance normalized to zero hour, 5 hr", "setting": "[1]", "value": 0.40},
      {"measurement": "Substrate use, 590 nm absorbance normalized to zero hour, 7 hr", "setting": "[1]", "value": 0.46},
      {"measurement": "Substrate use, 590 nm absorbance normalized to zero hour, 1 hr", "setting": "[2]", "value": 2.25},
      {"measurement": "Substrate use, 590 nm absorbance normalized to zero hour, 5 hr", "setting": "[2]", "value": 4.99},
      {"measurement": "Substrate use, 590 nm absorbance normalized to zero hour, 7 hr", "setting": "[2]", "value": 5.67},
      {"measurement": "590 nm absorbance normalized to zero hour (substrate use), 1 hr", "setting": "[3]", "value": 2.25},
      {"measurement": "590 nm absorbance normalized to zero hour (substrate use), 2 hr", "setting": "[3]", "value": 3.27},
      {"measurement": "590 nm absorbance normalized to zero hour (substrate use), 3 hr", "setting": "[3]", "value": 3.85},
      {"measurement": "590 nm absorbance normalized to zero hour (substrate use), 4 hr", "setting": "[3]", "value": 4.12},
      {"measurement": "590 nm absorbance normalized to zero hour (substrate use), 6 hr", "setting": "[3]", "value": 5.27},
      {"measurement": "590 nm absorbance normalized to zero hour (substrate use), 8 hr", "setting": "[3]", "value": 6.03},
      {"measurement": "590 nm absorbance normalized to zero hour (substrate use), 9 hr", "setting": "[3]", "value": 6.65},
      {"measurement": "590 nm absorbance normalized to zero hour (substrate use), 10 hr", "setting": "[3]", "value": 6.45},
      {"measurement": "590 nm absorbance normalized to zero hour (substrate use), 11 hr", "setting": "[3]", "value": 5.53}
    ]},
    {"smiles": "OC[C@H]1O[C@@H](O[C@H]2[C@H](O)[C@@H](O)[C@H](O)O[C@@H]2CO)[C@H](O)[C@@H](O)[C@@H]1O", "note": "[D-Cellobiose]", "values": [
      {"measurement": "590 nm absorbance normalized to zero hour (substrate use), 0 hr", "setting": "[1]", "value": 1.00},
      {"measurement": "590 nm absorbance normalized to zero hour (substrate use), 1 hr", "setting": "[1]", "value": 1.74},
      {"measurement": "590 nm absorbance normalized to zero hour (substrate use), 2 hr", "setting": "[1]", "value": 2.30},
      {"measurement": "590 nm absorbance normalized to zero hour (substrate use), 3 hr", "setting": "[1]", "value": 2.69},
      {"measurement": "590 nm absorbance normalized to zero hour (substrate use), 4 hr", "setting": "[1]", "value": 2.91},
      {"measurement": "590 nm absorbance normalized to zero hour (substrate use), 6 hr", "setting": "[1]", "value": 4.52},
      {"measurement": "590 nm absorbance normalized to zero hour (substrate use), 8 hr", "setting": "[1]", "value": 4.59},
      {"measurement": "590 nm absorbance normalized to zero hour (substrate use), 9 hr", "setting": "[1]", "value": 5.13},
      {"measurement": "590 nm absorbance normalized to zero hour (substrate use), 10 hr", "setting": "[1]", "value": 5.20},
      {"measurement": "590 nm absorbance normalized to zero hour (substrate use), 11 hr", "setting": "[1]", "value": 5.51},
      {"measurement": "Substrate use, 590 nm absorbance normalized to zero hour, 0 hr", "setting": "Control (uninfected) NHBE cells, Biolog PMM2, 0 hr", "value": 1.00},
      {"measurement": "Substrate use, 590 nm absorbance normalized to zero hour, 1 hr", "setting": "[1]", "value": 1.74},
      {"measurement": "Substrate use, 590 nm absorbance normalized to zero hour, 5 hr", "setting": "[1]", "value": 3.55},
      {"measurement": "Substrate use, 590 nm absorbance normalized to zero hour, 7 hr", "setting": "[1]", "value": 4.26},
      {"measurement": "590 nm absorbance normalized to zero hour (substrate use), 0 hr", "setting": "[3]", "value": 1.00},
      {"measurement": "590 nm absorbance normalized to zero hour (substrate use), 1 hr", "setting": "[3]", "value": 1.58},
      {"measurement": "590 nm absorbance normalized to zero hour (substrate use), 2 hr", "setting": "[3]", "value": 2.09},
      {"measurement": "590 nm absorbance normalized to zero hour (substrate use), 3 hr", "setting": "[3]", "value": 2.38},
      {"measurement": "590 nm absorbance normalized to zero hour (substrate use), 4 hr", "setting": "[3]", "value": 2.49},
      {"measurement": "590 nm absorbance normalized to zero hour (substrate use), 5 hr", "setting": "[3]", "value": 2.81},
      {"measurement": "590 nm absorbance normalized to zero hour (substrate use), 6 hr", "setting": "[3]", "value": 3.00},
      {"measurement": "590 nm absorbance normalized to zero hour (substrate use), 7 hr", "setting": "[3]", "value": 3.14},
      {"measurement": "590 nm absorbance normalized to zero hour (substrate use), 8 hr", "setting": "[3]", "value": 3.31},
      {"measurement": "590 nm absorbance normalized to zero hour (substrate use), 9 hr", "setting": "[3]", "value": 3.54},
      {"measurement": "590 nm absorbance normalized to zero hour (substrate use), 10 hr", "setting": "[3]", "value": 3.69},
      {"measurement": "590 nm absorbance normalized to zero hour (substrate use), 11 hr", "setting": "[3]", "value": 4.06},
      {"measurement": "590 nm absorbance normalized to zero hour (substrate use), 0 hr", "setting": "[4]", "value": 1.00},
      {"measurement": "590 nm absorbance normalized to zero hour (substrate use), 1 hr", "setting": "[4]", "value": 1.58},
      {"measurement": "590 nm absorbance normalized to zero hour (substrate use), 2 hr", "setting": "[4]", "value": 2.09},
      {"measurement": "590 nm absorbance normalized to zero hour (substrate use), 3 hr", "setting": "[4]", "value": 2.38},
      {"measurement": "590 nm absorbance normalized to zero hour (substrate use), 4 hr", "setting": "[4]", "value": 2.49},
      {"measurement": "590 nm absorbance normalized to zero hour (substrate use), 5 hr", "setting": "[4]", "value": 2.81},
      {"measurement": "590 nm absorbance normalized to zero hour (substrate use), 6 hr", "setting": "[4]", "value": 3.00},
      {"measurement": "590 nm absorbance normalized to zero hour (substrate use), 7 hr", "setting": "[4]", "value": 3.14},
      {"measurement": "590 nm absorbance normalized to zero hour (substrate use), 8 hr", "setting": "[4]", "value": 3.31},
      {"measurement": "590 nm absorbance normalized to zero hour (substrate use), 9 hr", "setting": "[4]", "value": 3.54},
      {"measurement": "590 nm absorbance normalized to zero hour (substrate use), 10 hr", "setting": "[4]", "value": 3.69},
      {"measurement": "590 nm absorbance normalized to zero hour (substrate use), 11 hr", "setting": "[4]", "value": 4.06}
    ]}
  ]
}
